This is an account of results in ChEMBL document CHEMBL1201862, “PubChem BioAssay data set” (2004).

Among the test systems are LOX IMVI; SR; SNB-75; SK-MEL-2; IGROV-1; NCI-H460; EKVX; U-251; UACC-257; HOP-62; SF-295; HCC 2998; HL-60; SN12C; CAKI-1; SW-620; HT-29; MDA-MB-231; K562; M14.
Common to all, as to assay: DTP human tumour cell line panel, 48 h

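Grown in 96-well plates, cells were treated for 48 hours with each compound at five concentrations. Insufficient inhibition: endpoint recorded as highest concentration tested. The concentration for 50% growth inhibition is given as GI50.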 Activity calls are given as the source filed them. Cut-off read from the data, not from the text of the source: active = GI50 up to about 1.1 µM and inactive = higher.

In the case of `CC(=O)OCC1OC(n2cnc3nc(Br)[nH]c(=O)c32)C(OC(C)=O)C1OC(C)=O` (stereo not given), the GI50 is > 100 µM (inactive) with LOX IMVI; > 100 µM (inactive) in the assay with SR; 70.3 µM (inactive) with SNB-75; > 100 µM (inactive) with SK-MEL-2; > 100 µM (inactive) in the assay on IGROV-1; > 100 µM (inactive) in the assay on NCI-H460. Moreover, the GI50 in the assay with EKVX, in the assay on U-251, in the assay with UACC-257, in the assay with HOP-62, in the assay with SF-295 and with HCC 2998 was > 100 µM (inactive) in each case. Besides, the GI50 in the assay with HL-60, with SN12C, in the assay with CAKI-1, in the assay with SW-620, in the assay with HT-29 and in the assay on MDA-MB-231 was > 100 µM (inactive) in each case. Moreover, the GI50 in the assay with K562 and in the assay with M14 was > 100 µM (inactive) in each case.
As for `COc1cc(/C=C2\N=C(c3ccccc3)N(/N=C/c3cc4cc(C)ccc4nc3Cl)C2=O)ccc1O`, the GI50 in the assay with LOX IMVI was 37 µM (inactive); in the assay on SR it was 18.9 µM (inactive); in the assay with SNB-75, 32.7 µM (inactive); in the assay with SK-MEL-2, 12.9 µM (inactive); with IGROV-1, 30.1 µM (inactive); with NCI-H460, 30.5 µM (inactive). In addition, the GI50 with EKVX was 37.2 µM (inactive); in the assay with U-251, 35.7 µM (inactive); with UACC-257, 49.8 µM (inactive); in the assay on HOP-62 it was 49.3 µM (inactive); with SF-295, 48.1 µM (inactive); in the assay on HCC 2998, 35.5 µM (inactive). Further, the GI50 with HL-60 is 24.9 µM (inactive); with SN12C, 30 µM (inactive); in the assay on CAKI-1, 78 µM (inactive); with SW-620, 39.2 µM (inactive); in the assay with HT-29, 33.8 µM (inactive); in the assay on MDA-MB-231, 27.8 µM (inactive). In addition, the GI50 is 45.8 µM (inactive) in the assay with K562 and 42.1 µM (inactive) in the assay with M14.
As to `COC1=CC2(CC(OC)=C1OC)OC21COc2ccccc2C1=O` (stereo not given), the GI50 in the assay with LOX IMVI was 50.5 µM (inactive); in the assay on SR, 24.9 µM (inactive); in the assay with SNB-75 it was 37.4 µM (inactive); in the assay on SK-MEL-2 it was 40.2 µM (inactive); in the assay with IGROV-1, > 100 µM (inactive); in the assay with NCI-H460, 42.9 µM (inactive). The GI50 with EKVX is 39.4 µM (inactive); in the assay on U-251, 73.8 µM (inactive); in the assay with UACC-257, 44.4 µM (inactive); with HOP-62, > 100 µM (inactive); with SF-295, 61.2 µM (inactive); with HCC 2998, > 100 µM (inactive). Further, the GI50 in the assay with HL-60 is 32.4 µM (inactive); in the assay with SN12C, 47.2 µM (inactive); in the assay on CAKI-1 it was > 100 µM (inactive); with SW-620, > 100 µM (inactive); in the assay with HT-29, 51.4 µM (inactive); in the assay with MDA-MB-231 it was > 100 µM (inactive). Besides, the GI50 was 56.2 µM (inactive) in the assay on K562 and 87.5 µM (inactive) in the assay on M14.
Consider `CCOC(=O)c1nnc2c(C(=O)OCC)c3ccccc3n2c1N`, for which the GI50 in the assay on LOX IMVI is 5.96 µM (inactive); with SR, 6.92 µM (inactive); in the assay on SNB-75, 11 µM (inactive); in the assay on SK-MEL-2, 5.15 µM (inactive); in the assay with IGROV-1 it was 1.12 µM (active); in the assay on NCI-H460, 8.13 µM (inactive). Also, the GI50 in the assay with EKVX was 25.8 µM (inactive); with U-251, 5.41 µM (inactive); in the assay on UACC-257, 2.09 µM (inactive); with HOP-62 it was 68.9 µM (inactive); in the assay with SF-295 it was 26.9 µM (inactive); with HCC 2998, 34 µM (inactive). Also, the GI50 is 2.15 µM (inactive) with HL-60; 6.67 µM (inactive) with SN12C; 7.48 µM (inactive) in the assay on CAKI-1; 8.26 µM (inactive) in the assay on SW-620; 22.8 µM (inactive) with HT-29; 19.8 µM (inactive) in the assay on MDA-MB-231. Besides, the GI50 in the assay on K562 is 11.2 µM (inactive); in the assay with M14 it was 5.97 µM (inactive).
As to `Cn1c(-c2ccco2)ccc1-c1ccc(C=O)o1`, the GI50 with LOX IMVI is 34.8 µM (inactive); in the assay with SR, 31 µM (inactive); in the assay on SNB-75, > 100 µM (inactive); with SK-MEL-2 it was > 100 µM (inactive); in the assay with IGROV-1, 38.2 µM (inactive); in the assay with NCI-H460, > 100 µM (inactive). Also, the GI50 in the assay with EKVX was 48.8 µM (inactive); with U-251, 39.1 µM (inactive); in the assay on UACC-257, > 100 µM (inactive); in the assay with HOP-62, > 100 µM (inactive); in the assay on SF-295, > 100 µM (inactive); in the assay on HCC 2998, > 100 µM (inactive). Besides, the GI50 in the assay on HL-60 was 21.5 µM (inactive); in the assay on SN12C, 77.6 µM (inactive); with CAKI-1, 13 µM (inactive); in the assay with SW-620, 33.4 µM (inactive); in the assay with HT-29, 44.9 µM (inactive); in the assay on MDA-MB-231, 79.1 µM (inactive). Moreover, the GI50 with K562 is 37.5 µM (inactive); with M14, 35 µM (inactive).
With `CC(=NNC(=S)Nc1cccc(C)c1)c1cccc(C(C)=NNC(=S)Nc2cccc(C)c2)n1`, the GI50 in the assay with LOX IMVI is 15.5 µM (inactive); in the assay on SR, 5.25 µM (inactive); in the assay with SNB-75 it was 17.5 µM (inactive); with SK-MEL-2, 13.3 µM (inactive); with IGROV-1 it was 10.8 µM (inactive); with NCI-H460, 12.8 µM (inactive). Also, the GI50 in the assay with EKVX is 26.1 µM (inactive); in the assay on U-251, 21.5 µM (inactive); in the assay on UACC-257 it was 0.0198 µM (active); in the assay on HOP-62 it was 17 µM (inactive); in the assay with SF-295 it was 6.19 µM (inactive); in the assay with HCC 2998, 43.3 µM (inactive). The GI50 in the assay with HL-60 is 17.3 µM (inactive); in the assay on SN12C it was 25.8 µM (inactive); in the assay on CAKI-1, 11.9 µM (inactive); with SW-620 it was 19 µM (inactive); in the assay with HT-29, 26.1 µM (inactive); in the assay on MDA-MB-231, 19 µM (inactive). For the same compound, the GI50 in the assay on K562 was 17.1 µM (inactive); in the assay on M14, 11.8 µM (inactive).
